Holding throughout (assay): biochemical
What all share (design): species or system human cell line lysate

For assay [1], the target named is Rho-associated protein kinase 2 ; ROCK2 ; O75116 (Homo sapiens, UniProt O75116).
In assay [2] the target is Dual specificity protein kinase CLK4 ; CLK4 ; Q9HAZ1 (Homo sapiens, UniProt Q9HAZ1).
Assay [3] has as its target Serine/threonine-protein kinase Nek3 ; NEK3 ; P51956 (Homo sapiens, UniProt P51956).
The target of assay [4] is Serine/threonine-protein kinase MARK2 ; MARK2 ; Q7KZI7 (Homo sapiens, UniProt Q7KZI7).
For assay [5], the target named is Tyrosine-protein kinase FRK ; FRK ; P42685 (Homo sapiens, UniProt P42685).
In assay [6] the target is Misshapen-like kinase 1 ; MINK1 ; Q8N4C8 (Homo sapiens, UniProt Q8N4C8).
Sequence of Misshapen-like kinase 1 ; MINK1 ; Q8N4C8 (Q8N4C8 whole entry): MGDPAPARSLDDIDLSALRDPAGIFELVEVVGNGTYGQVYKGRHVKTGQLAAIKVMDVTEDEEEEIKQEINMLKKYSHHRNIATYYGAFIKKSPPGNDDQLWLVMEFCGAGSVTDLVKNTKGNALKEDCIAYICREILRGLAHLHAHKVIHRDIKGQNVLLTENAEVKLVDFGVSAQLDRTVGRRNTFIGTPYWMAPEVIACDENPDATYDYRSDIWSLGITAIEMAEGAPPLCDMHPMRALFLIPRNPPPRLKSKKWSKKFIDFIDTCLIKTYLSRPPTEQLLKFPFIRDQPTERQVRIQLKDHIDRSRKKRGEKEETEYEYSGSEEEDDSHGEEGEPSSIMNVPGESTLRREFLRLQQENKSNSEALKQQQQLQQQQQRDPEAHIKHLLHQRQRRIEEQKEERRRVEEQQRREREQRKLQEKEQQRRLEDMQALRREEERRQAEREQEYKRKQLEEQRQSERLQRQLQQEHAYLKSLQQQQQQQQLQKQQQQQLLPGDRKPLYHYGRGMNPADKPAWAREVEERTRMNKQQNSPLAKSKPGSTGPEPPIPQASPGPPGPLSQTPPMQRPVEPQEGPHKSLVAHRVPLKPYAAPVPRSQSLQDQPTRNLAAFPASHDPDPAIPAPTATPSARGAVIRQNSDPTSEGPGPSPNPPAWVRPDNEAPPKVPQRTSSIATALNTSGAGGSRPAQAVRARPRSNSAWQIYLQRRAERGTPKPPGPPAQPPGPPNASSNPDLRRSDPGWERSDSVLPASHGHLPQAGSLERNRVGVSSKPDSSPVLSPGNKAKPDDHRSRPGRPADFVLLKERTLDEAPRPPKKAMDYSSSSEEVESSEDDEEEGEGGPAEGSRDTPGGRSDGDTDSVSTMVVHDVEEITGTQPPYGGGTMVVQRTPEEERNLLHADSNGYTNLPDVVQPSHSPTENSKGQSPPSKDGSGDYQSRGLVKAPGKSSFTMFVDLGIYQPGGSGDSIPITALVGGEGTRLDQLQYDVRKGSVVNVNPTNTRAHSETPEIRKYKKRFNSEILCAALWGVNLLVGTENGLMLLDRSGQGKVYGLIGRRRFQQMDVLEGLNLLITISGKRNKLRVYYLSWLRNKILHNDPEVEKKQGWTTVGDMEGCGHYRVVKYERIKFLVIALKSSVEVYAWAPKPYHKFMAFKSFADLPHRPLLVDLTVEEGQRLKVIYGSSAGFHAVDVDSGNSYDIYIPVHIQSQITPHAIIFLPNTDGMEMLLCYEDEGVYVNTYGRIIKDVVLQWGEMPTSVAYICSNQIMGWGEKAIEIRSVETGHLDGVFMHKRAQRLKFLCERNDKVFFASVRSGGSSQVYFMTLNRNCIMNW
For assay [7], the target named is Serine/threonine-protein kinase ATR ; ATR ; Q13535 (Homo sapiens, UniProt Q13535).
Assay [8] has as its target Tyrosine-protein kinase Fes/Fps ; FES ; P07332 (Homo sapiens, UniProt P07332).
Assay [9] addresses Ephrin type-A receptor 2 ; EPHA2 ; P29317 (Homo sapiens, UniProt P29317).
Assay [10] has as its target Serine/threonine-protein kinase D3 ; PRKD3 ; O94806 (Homo sapiens, UniProt O94806).
Assay [11] concerns the target Isoform 6 of Tyrosine-protein kinase ABL2 ; ABL2 ; P42684-6 (Homo sapiens, UniProt P42684).
The target of assay [12] is Dual specificity protein kinase CLK2 ; CLK2 ; P49760 (Homo sapiens, UniProt P49760).
The target in assay [13] is Isoform 2 of Tyrosine-protein kinase Lyn ; LYN ; P07948-2 (Homo sapiens, UniProt P07948).
Sequence of Isoform 2 of Tyrosine-protein kinase Lyn ; LYN ; P07948-2 (P07948 whole entry, canonical isoform): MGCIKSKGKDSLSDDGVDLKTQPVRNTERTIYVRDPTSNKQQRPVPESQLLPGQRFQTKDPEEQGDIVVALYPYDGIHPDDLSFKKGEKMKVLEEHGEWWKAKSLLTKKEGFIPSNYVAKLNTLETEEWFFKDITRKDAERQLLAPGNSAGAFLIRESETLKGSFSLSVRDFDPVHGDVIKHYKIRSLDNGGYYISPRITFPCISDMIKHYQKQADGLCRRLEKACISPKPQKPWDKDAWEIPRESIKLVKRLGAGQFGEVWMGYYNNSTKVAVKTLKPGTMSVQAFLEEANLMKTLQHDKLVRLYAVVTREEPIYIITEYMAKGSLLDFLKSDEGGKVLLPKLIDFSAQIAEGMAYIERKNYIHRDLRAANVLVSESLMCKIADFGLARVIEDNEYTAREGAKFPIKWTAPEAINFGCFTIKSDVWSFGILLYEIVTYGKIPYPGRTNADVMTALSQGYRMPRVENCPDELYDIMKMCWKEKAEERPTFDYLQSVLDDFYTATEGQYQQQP
For assay [14], the target named is Kinase suppressor of Ras 1 ; KSR1 ; Q8IVT5 (Homo sapiens, UniProt Q8IVT5).
Sequence of Kinase suppressor of Ras 1 ; KSR1 ; Q8IVT5 (Q8IVT5 whole entry): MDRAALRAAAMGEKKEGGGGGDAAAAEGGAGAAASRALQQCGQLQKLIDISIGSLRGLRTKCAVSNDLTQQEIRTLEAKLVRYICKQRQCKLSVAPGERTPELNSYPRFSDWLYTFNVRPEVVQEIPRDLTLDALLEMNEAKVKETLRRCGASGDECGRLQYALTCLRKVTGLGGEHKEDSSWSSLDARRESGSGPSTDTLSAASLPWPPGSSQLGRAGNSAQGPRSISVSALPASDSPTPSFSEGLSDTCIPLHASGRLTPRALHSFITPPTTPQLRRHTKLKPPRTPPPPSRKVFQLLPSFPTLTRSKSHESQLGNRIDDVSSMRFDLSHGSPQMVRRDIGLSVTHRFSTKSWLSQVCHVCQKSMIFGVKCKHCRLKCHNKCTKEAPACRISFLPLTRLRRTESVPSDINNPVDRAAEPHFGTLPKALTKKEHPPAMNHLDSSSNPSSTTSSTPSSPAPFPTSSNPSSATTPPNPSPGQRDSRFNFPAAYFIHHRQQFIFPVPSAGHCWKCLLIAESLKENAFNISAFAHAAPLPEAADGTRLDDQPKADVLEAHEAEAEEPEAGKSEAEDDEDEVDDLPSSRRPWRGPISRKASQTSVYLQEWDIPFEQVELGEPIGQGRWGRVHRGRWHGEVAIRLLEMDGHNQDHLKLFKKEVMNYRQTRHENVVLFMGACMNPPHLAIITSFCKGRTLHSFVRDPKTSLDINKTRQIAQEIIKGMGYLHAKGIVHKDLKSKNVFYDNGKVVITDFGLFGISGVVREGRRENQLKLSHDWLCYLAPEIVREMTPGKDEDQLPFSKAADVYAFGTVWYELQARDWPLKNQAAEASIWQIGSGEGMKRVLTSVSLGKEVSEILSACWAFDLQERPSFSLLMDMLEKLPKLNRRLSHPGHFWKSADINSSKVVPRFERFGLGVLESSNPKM
Assay [15] addresses Phosphatidylinositol 3-kinase catalytic subunit type 3 ; PIK3C3 ; Q8NEB9 (Homo sapiens, UniProt Q8NEB9).
In assay [16] the target is MAP kinase-activated protein kinase 2 ; MAPKAPK2 ; P49137 (Homo sapiens, UniProt P49137).
In assay [17] the target is T1, Dual specificity mitogen-activated protein kinase kinase 5 ; MAP2K5 ; Q13163 (Homo sapiens, UniProt Q13163).
T1 sequence (Q13163 1-448): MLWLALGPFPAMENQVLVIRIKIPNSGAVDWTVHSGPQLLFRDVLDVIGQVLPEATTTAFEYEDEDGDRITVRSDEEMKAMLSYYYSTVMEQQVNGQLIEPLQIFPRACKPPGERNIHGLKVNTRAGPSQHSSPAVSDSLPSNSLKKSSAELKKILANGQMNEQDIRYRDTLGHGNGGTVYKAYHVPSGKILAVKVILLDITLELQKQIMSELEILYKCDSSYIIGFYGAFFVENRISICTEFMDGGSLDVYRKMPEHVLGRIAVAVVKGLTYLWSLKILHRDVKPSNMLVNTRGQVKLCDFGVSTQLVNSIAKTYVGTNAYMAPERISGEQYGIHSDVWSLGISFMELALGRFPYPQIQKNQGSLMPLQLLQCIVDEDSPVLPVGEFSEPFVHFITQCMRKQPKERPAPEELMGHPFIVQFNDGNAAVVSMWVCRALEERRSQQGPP

For assay [18], the target named is Mitogen-activated protein kinase kinase kinase 1 ; MAP3K1 ; Q13233 (Homo sapiens, UniProt Q13233).
Assay [19] concerns the target Serine/threonine-protein kinase mTOR ; MTOR ; P42345 (Homo sapiens, UniProt P42345).
Assay [20] addresses Leucine-rich repeat serine/threonine-protein kinase 2 ; LRRK2 ; Q5S007 (Homo sapiens, UniProt Q5S007).
Setting [21] is: read-out: BAY-1143572 (10 µM) / %Intensity relative to DMSO.
Setting [22] is: read-out: BAY-1251152 (10 µM) / %Intensity relative to DMSO.

Read-outs that look alike come from different tables or passages of the source.

Sequence of Serine/threonine-protein kinase Nek3 ; NEK3 ; P51956 (P51956 whole entry, one chain of several): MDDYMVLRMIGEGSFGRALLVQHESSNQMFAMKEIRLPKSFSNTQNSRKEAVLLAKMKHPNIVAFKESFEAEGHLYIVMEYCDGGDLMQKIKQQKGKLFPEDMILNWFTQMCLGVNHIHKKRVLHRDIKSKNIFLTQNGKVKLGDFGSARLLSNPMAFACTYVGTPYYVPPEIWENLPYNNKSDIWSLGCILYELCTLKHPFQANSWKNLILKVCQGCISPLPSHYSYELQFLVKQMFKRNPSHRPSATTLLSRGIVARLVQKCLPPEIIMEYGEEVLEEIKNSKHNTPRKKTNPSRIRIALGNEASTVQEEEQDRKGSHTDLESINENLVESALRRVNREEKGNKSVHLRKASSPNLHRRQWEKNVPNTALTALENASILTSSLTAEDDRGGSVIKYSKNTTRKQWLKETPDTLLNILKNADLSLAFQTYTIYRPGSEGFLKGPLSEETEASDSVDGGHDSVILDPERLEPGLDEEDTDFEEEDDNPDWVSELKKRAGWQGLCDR
Sequence of Isoform 6 of Tyrosine-protein kinase ABL2 ; ABL2 ; P42684-6 (P42684 whole entry, canonical isoform): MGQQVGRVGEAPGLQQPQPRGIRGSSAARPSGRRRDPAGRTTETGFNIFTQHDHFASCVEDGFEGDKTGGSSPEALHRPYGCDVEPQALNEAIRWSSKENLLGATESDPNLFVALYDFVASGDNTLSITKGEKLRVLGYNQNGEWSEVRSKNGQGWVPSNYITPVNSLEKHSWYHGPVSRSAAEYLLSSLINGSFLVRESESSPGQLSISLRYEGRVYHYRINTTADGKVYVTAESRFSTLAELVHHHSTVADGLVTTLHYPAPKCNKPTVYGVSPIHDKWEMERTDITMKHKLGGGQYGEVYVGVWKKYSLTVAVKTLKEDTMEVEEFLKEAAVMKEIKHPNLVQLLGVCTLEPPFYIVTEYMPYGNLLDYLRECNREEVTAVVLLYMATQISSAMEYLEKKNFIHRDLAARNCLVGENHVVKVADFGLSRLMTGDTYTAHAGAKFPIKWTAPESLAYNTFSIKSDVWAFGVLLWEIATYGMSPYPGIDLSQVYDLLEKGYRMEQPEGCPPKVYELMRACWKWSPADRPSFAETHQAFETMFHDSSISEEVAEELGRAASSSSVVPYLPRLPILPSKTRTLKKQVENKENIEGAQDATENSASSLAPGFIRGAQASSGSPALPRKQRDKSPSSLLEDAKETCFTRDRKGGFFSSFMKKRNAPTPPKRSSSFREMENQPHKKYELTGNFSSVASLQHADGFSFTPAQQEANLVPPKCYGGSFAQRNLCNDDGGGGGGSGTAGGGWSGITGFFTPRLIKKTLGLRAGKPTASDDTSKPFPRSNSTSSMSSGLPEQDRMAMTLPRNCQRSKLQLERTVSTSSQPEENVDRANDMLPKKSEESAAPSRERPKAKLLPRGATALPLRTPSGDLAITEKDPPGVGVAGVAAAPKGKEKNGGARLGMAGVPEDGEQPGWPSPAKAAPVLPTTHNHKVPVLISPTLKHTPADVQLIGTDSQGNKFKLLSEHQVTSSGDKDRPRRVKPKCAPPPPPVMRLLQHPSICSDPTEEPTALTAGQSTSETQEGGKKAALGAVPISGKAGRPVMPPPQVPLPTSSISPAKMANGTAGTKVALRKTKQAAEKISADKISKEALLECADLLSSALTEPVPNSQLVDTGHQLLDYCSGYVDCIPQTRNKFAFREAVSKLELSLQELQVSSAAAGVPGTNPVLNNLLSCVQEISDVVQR
Sequence of Dual specificity protein kinase CLK4 ; CLK4 ; Q9HAZ1 (Q9HAZ1 whole entry): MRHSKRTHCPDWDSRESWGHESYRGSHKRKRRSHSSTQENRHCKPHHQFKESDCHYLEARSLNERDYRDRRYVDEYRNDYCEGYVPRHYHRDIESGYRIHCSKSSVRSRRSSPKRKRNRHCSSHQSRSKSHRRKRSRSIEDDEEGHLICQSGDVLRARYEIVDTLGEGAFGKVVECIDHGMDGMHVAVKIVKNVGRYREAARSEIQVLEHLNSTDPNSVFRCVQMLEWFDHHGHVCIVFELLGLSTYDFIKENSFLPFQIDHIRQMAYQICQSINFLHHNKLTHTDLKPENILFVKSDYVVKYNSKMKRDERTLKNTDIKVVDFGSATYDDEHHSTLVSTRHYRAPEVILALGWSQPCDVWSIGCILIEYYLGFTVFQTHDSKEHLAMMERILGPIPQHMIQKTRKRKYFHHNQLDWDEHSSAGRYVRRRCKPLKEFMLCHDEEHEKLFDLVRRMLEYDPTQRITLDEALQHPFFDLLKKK

For `COc1cc(F)ccc1-c1ncnc(Nc2cccc(C[S@](C)(=N)=O)c2)n1` [BAY-1143572], the remaining activity at 10 µM in assay [1] (setting [21]) is 120%; in assay [2] (setting [21]), 141%; in assay [3] (setting [21]) it was 88.7%; in assay [4] (setting [21]), 110%; in assay [5] (setting [21]), 125%; in [6] (setting [21]), 72.9%. For the same compound, the remaining activity at 10 µM in assay [7] (setting [21]) worked out at 109%; in assay [8] (setting [21]), 102%; in assay [9] (setting [21]), 84.9%; in assay [10] (setting [21]) it was 108%; in assay [11] (setting [21]) it was 59.1%; in [12] (setting [21]) it was 139%. Moreover, the remaining activity at 10 µM in [13] (setting [21]) turned out to be 102%; in assay [14] (setting [21]) it was 131%; in [15] (setting [21]) it was 119%; in assay [16] (setting [21]), 128%; in assay [17] (setting [21]), 102%; in [18] (setting [21]) it was 73.3%. For the same compound, the values for the remaining activity at 10 µM in assay [19] (setting [21]) and in [20] (setting [21]) were 98.9% and 109%, respectively.
For the compound `COc1cc(F)ccc1-c1cc(Nc2cc(CS(C)(=N)=O)ccn2)ncc1F` (stereo not shown) [BAY-1251152], the remaining activity at 10 µM in [1] (setting [22]) amounted to 110%; in assay [2] (setting [22]), 133%; in assay [3] (setting [22]), 112%; in assay [4] (setting [22]) it was 103%; in assay [5] (setting [22]), 123%; in assay [6] (setting [22]), 54.1%. Further, the remaining activity at 10 µM in assay [7] (setting [22]) was found to be 70.1%; in assay [8] (setting [22]) it was 96.1%; in assay [9] (setting [22]) it was 103%; in [10] (setting [22]), 102%; in assay [11] (setting [22]), 69.2%; in assay [12] (setting [22]), 112%. The remaining activity at 10 µM in assay [13] (setting [22]) was determined as 107%; in [14] (setting [22]), 146%; in assay [15] (setting [22]), 124%; in assay [16] (setting [22]), 119%; in assay [17] (setting [22]), 101%; in assay [18] (setting [22]), 82.4%. Further, the remaining activity at 10 µM in assay [19] (setting [22]) came to 103%; in assay [20] (setting [22]), 107%.

(Values after publication doi:10.1101/2024.08.13.607785v1 (biorxiv, 2024).)
